Among the data in patent US9216991B2 (Ares Trading S.A., priority 2012, dated 2015) are IC50 values, retold here.

Counter-ions that a name gives are not always drawn. Bounds are passed on as bounds.

The target of the experiment is T1, IRAK4 (Homo sapiens, UniProt Q9NWZ3).
T1 construct: His (N); TEV cleavage site (N)
T1 sequence (Q9NWZ3 1-460): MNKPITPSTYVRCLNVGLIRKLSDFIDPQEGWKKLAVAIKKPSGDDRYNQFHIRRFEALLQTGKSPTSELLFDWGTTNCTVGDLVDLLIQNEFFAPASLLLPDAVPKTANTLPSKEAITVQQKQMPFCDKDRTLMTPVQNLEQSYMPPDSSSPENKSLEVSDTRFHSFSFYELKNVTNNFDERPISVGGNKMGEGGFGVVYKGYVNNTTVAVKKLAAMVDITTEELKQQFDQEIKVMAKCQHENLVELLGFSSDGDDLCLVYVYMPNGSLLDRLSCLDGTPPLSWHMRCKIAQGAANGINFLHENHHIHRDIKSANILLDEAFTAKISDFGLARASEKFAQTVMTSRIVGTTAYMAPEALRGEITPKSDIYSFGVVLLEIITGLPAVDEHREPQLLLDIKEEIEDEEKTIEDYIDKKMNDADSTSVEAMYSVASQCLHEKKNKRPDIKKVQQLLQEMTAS
Description: IRAK4 Enzymatic Assay. Particulars: His-TEV-IRAK4 20 ng/well, ATP 2 μM, STK1-biotin peptide 300 nM, 3 hours at 30° C., FlashPlate radioactivity. It is filed as biochemical. The gist of the method:
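Radiometric FlashPlate readout: biotin-STK1 substrate (300 nM) captured on streptavidin after EDTA stop and washes. Reaction used His-TEV-IRAK4 (20 ng/well), 2 μM [^33P]-spiked ATP and compound (1 nM-20 μM), incubated 3 h at 30 °C in 50 mM HEPES pH 7.0, 10 mM MgCl2, 5 mM MnCl2, 2 mM DTT.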
Regarding `COc1ccc(CCn2cc(-c3cnc(-c4cccc(-c5cnn(C)c5)c4)nc3)cn2)cc1OC` [Example 96, 5-{1-[2-(3,4-Dimethoxy-phenyl)-ethyl]-1H-pyrazol-4-yl}-2-[3-(1-methyl-1H-pyrazol-4-yl)-phenyl]-pyrimidine], the half-maximal inhibitory concentration (IC50) was 100 to 1000 nM. Consider `Cn1cc(-c2cccc(-c3ncc(-c4cnn(C5CCNCC5)c4)cn3)c2)nn1` [Example 72, 2-[3-(1-Methyl-1H-[1,2,3]triazol-4-yl)-phenyl]-5-(1-piperidin-4-yl-1H-pyrazol-4-yl)-pyrimidine hydrochloride], for which the 50% inhibitory concentration (IC50) was in the range of 1000 to 5000 nM. Turning to `Cn1cc(-c2cccc(-c3ncc(-c4cnn(C5CCN(C6CCOCC6)CC5)c4)cn3)c2)cn1` [Example 39, 2-[3-(1-Methyl-1H-pyrazol-4-yl)-phenyl]-5-{1-[1-(tetrahydro-pyran-4-yl)-piperidin-4-yl]-1H-pyrazol-4-yl}-pyrimidine], the IC50 is less than 100 nM.

As to `c1cc(-c2ccoc2)cc(-c2ncc(-c3cnn(C4CCNCC4)c3)cn2)c1` [Example 7, 2-(3-Furan-3-yl-phenyl)-5-(1-piperidin-4-yl-1H-pyrazol-4-yl)-pyrimidine Hydrochloride], the IC50 lay in the range of 100 to 1000 nM. Regarding `CC(=O)N1CC[C@H](n2cc(-c3cnc(-c4cccc(-c5cnn(C)c5)c4)nc3)cn2)[C@@H](O)C1` (single isomer, unassigned) [Example 202], the IC50 lay within 100 to 1000 nM. Consider `Cn1cc(-c2cccc(-c3ncc(-c4cnn([C@H]5CC[C@H](CO)CC5)c4)cn3)c2)cn1` [Example 238, Trans-[4-(4-{2-[3-(1-Methyl-1H-pyrazol-4-yl)-phenyl]-pyrimidin-5-yl}-pyrazol-1-yl)-cyclohexyl]-methanol], for which the concentration for half-maximal inhibition (IC50) was less than 100 nM. On to `CC(=O)N1CC[C@@H](n2cc(-c3cnc(-c4cccc(-c5cnn(C)c5)c4)nc3)cn2)C1` [Example 130, 1-[(R)-3-(4-{2-[3-(1-Methyl-1H-pyrazol-4-yl)-phenyl]-pyrimidin-5-yl}-pyrazol-1-yl)-pyrrolidin-1-yl]-ethanone], for which the IC50 lay in the range of 1000 to 5000 nM. Take `Cn1cc(-c2cccc(-c3ncc(-c4cnn([C@H]5CC[C@H](C(=O)NCCO)CC5)c4)cn3)c2)cn1` [Example 184, trans-4-(4-{2-[3-(1-Methyl-1H-pyrazol-4-yl)-phenyl]-pyrimidin-5-yl}-pyrazol-1-yl)-cyclohexanecarboxylic acid (2-hydroxy-ethyl)-amide]: the IC50 is less than 100 nM.

With `CC(C)[C@H](N)C(=O)N1CCC(n2cc(-c3cnc(-c4cccc(-c5cnn(C)c5)c4)nc3)cn2)CC1` [Example 124, (S)-2-Amino-3-methyl-1-[4-(4-{2-[3-(1-methyl-1H-pyrazol-4-yl)-phenyl]-pyrimidin-5-yl}-pyrazol-1-yl)-piperidin-1-yl]-butan-1-one], the 50% inhibitory concentration (IC50) fell in the range of 100 to 1000 nM. For `c1cncc(-c2cccc(-c3ncc(-c4cnn(C5CCNCC5)c4)cn3)c2)c1` [Example 2, 5-(1-(piperidin-4-yl)-1H-pyrazol-4-yl)-2-(3-(pyridin-3-yl)phenyl)pyrimidine hydrochloride], the half-maximal inhibitory concentration (IC50) fell in the range of 100 to 1000 nM. Turning to `Cn1cc(-c2cccc(-c3ncc(-c4cnn(CC5CNC5)c4)cn3)c2)cn1` [Example 66, 5-(1-Azetidin-3-ylmethyl-1H-pyrazol-4-yl)-2-[3-(1-methyl-1H-pyrazol-4-yl)-phenyl]-pyrimidine hydrochloride], the IC50 fell in the range of 100 to 1000 nM. Regarding `Cn1cc(-c2cccc(-c3ncc(-c4cnn([C@H]5CC[C@H](C(=O)N6CC[C@H](O)C6)CC5)c4)cn3)c2)cn1` [Example 205, trans-((S)-3-Hydroxy-pyrrolidin-1-yl)-[4-(4-{2-[3-(1-methyl-1H-pyrazol-4-yl)-phenyl]-pyrimidin-5-yl}-pyrazol-1-yl)-cyclohexyl]-methanone], the IC50 is less than 100 nM. In the case of `Cn1cc(-c2cccc(-c3ncc(-c4cnn(C5CCNCC5F)c4)cn3)c2)cn1` (stereo not drawn) [Example 30, trans-5-[1-(3-Fluoro-piperidin-4-yl)-1H-pyrazol-4-yl]-2-[3-(1-methyl-1H-pyrazol-4-yl)-phenyl]-pyrimidine hydrochloride] it was 100 to 1000 nM. Take `O=C(Cn1cc(-c2cnc(-c3cccc(-c4c[nH]nn4)c3)nc2)cn1)N1CCOCC1` [Example 79, 1-Morpholin-4-yl-2-(4-{2-[3-(1H-[1,2,3]triazol-4-yl)-phenyl]-pyrimidin-5-yl}-pyrazol-1-yl)-ethanone]: the IC50 lay within 1000 to 5000 nM. In the case of `O=C(Cn1cc(-c2cnc(-c3cccc(-c4ccncc4)c3)nc2)cn1)N1CCOCC1` [Example 68, 1-Morpholin-4-yl-2-{4-[2-(3-pyridin-4-yl-phenyl)-pyrimidin-5-yl]-pyrazol-1-yl}-ethanone], the half-maximal inhibitory concentration (IC50) fell in the range of 1000 to 5000 nM. In the case of `Cn1cc(-c2cccc(-c3ncc(-c4cnn([C@H]5CC[C@](O)(CO)CC5)c4)cn3)c2)cn1` [Example 258, Cis-1-Hydroxymethyl-4-(4-{2-[3-(1-methyl-1H-pyrazol-4-yl)-phenyl]-pyrimidin-5-yl}-pyrazol-1-yl)-cyclohexanol] it was less than 100 nM; in that of `Cn1cc(-c2cccc(-c3ncc(-c4cnn(C5CCCS(=O)(=O)C5)c4)cn3)c2)cn1` (centres unmarked) [Example 177, 5-[1-(1,1-Dioxo-hexahydro-1l6-thiopyran-3-yl)-1H-pyrazol-4-yl]-2-[3-(1-methyl-1H-pyrazol-4-yl)-phenyl]-pyrimidin], less than 100 nM; in that of `CC(=O)N1CC[C@@H](n2cc(-c3cnc(-c4cccc(-c5cnn(C)c5)c4)nc3)cn2)[C@H](O)C1` (single isomer, unassigned) [Example 201], 100 to 1000 nM.

With `Cn1cc(-c2cccc(-c3ncc(-c4cnn(C5CCN(C6CCOCC6F)CC5)c4)cn3)c2)cn1` (stereo not drawn) [Example 95, Cis-5-{1-[1-(3-Fluoro-tetrahydro-pyran-4-yl)-piperidin-4-yl]-1H-pyrazol-4-yl}-2-[3-(1-methyl-1H-pyrazol-4-yl)-phenyl]-pyrimidine], the IC50 lay within 100 to 1000 nM. The result for `Cn1cc(-c2cccc(-c3ncc(-c4cnn(CCC(=O)N5CCCC5)c4)cn3)c2)cn1` [Example 84, 3-(4-{2-[3-(1-Methyl-1H-pyrazol-4-yl)-phenyl]-pyrimidin-5-yl}-pyrazol-1-yl)-1-pyrrolidin-1-yl-propan-1-one] reads 1000 to 5000 nM; that for `Cn1cc(-c2cccc(-c3ncc(-c4cnn([C@H]5CC[C@H](OCC(C)(C)O)CC5)c4)cn3)c2)cn1` [Example 224, trans-2-Methyl-1-[4-(4-{2-[3-(1-methyl-1H-pyrazol-4-yl)-phenyl]-pyrimidin-5-yl}-pyrazol-1-yl)-cyclohexyloxy]-propan-2-ol], less than 100 nM. In the case of `Cn1cc(-c2cccc(-c3ncc(-c4cnn(C5C6COCC5CC(CO)C6)c4)cn3)c2)cn1` (centres unmarked) [Example 276, [9-(4-{2-[3-(1-Methyl-1H-pyrazol-4-yl)-phenyl]-pyrimidin-5-yl}-pyrazol-1-yl)-3-oxa-bicyclo[3.3.1]non-7-yl]-methanol] it was 100 to 1000 nM; in that of `Cn1cc(-c2cccc(-c3ncc(-c4cnn([C@H]5CC[C@]6(CCC(=O)N6)CC5)c4)cn3)c2)cn1` [Example 250, cis-8-(4-{2-[3-(1-Methyl-1H-pyrazol-4-yl)-phenyl]-pyrimidin-5-yl}-pyrazol-1-yl)-1-aza-spiro[4.5]decan-2-one], less than 100 nM. Turning to `Cn1cc(-c2cccc(-c3ncc(-c4cn(C5CCOCC5)nc4C(=O)O)cn3)c2)cn1` [Example 140, 4-{2-[3-(1-Methyl-1H-pyrazol-4-yl)-phenyl]-pyrimidin-5-yl}-1-(tetrahydro-pyran-4-yl)-1H-pyrazole-3-carboxylic acid], the IC50 lay in the range of 1000 to 5000 nM. With `CC(C)NC(=O)[C@H]1CC[C@H](n2cc(-c3cnc(-c4cccc(-c5cnn(C)c5)c4)nc3)cn2)CC1` [Example 174, 4-(4-{2-[3-(1-Methyl-1H-pyrazol-4-yl)-phenyl]-pyrimidin-5-yl}-pyrazol-1-yl)-cyclohexanecarboxylic acid isopropylamide], the IC50 is 100 to 1000 nM. On to `CCC(CO)NC(=O)Cn1cc(-c2cnc(-c3cccc(-c4cnn(C)c4)c3)nc2)cn1` (centres unmarked) [Example 60, N-(1-Hydroxymethyl-propyl)-2-(4-{2-[3-(1-methyl-1H-pyrazol-4-yl)-phenyl]-pyrimidin-5-yl}-pyrazol-1-yl)-acetamide], for which the IC50 lay within 1000 to 5000 nM. Turning to `Cn1cc(-c2cccc(-c3ncc(-c4cnn([C@H]5CC[C@H](N6CCOCC6=O)CC5)c4)cn3)c2)cn1` [Example 254, 4-[4-(4-{2-[3-(1-Methyl-1H-pyrazol-4-yl)-phenyl]-pyrimidin-5-yl}-pyrazol-1-yl)-cyclohexyl]-morpholin-3-one], the 50% inhibitory concentration (IC50) is less than 100 nM. In the case of `Cn1cc(-c2cccc(-c3ncc(-c4cnn(CC(=O)N5CCC6(CC5)COC6)c4)cn3)c2)cn1` [Example 86, 2-(4-{2-[3-(1-Methyl-1H-pyrazol-4-yl)-phenyl]-pyrimidin-5-yl}-pyrazol-1-yl)-1-(2-oxa-7-aza-spiro[3.5]non-7-yl)-ethanone] it was 100 to 1000 nM; in that of `COCCC(=O)N1CCC(n2cc(-c3cnc(-c4cccc(-c5cnn(C)c5)c4)nc3)cn2)CC1` [Example 109, 3-Methoxy-1-[4-(4-{2-[3-(1-methyl-1H-pyrazol-4-yl)-phenyl]-pyrimidin-5-yl}-pyrazol-1-yl)-piperidin-1-yl]-propan-1-one], 100 to 1000 nM.
